Test results reported in article PMC9090415, “Discovery of small molecule inhibitors of Plasmodium falciparum apicoplast DNA polymerase” (Journal of Enzyme Inhibition and Medicinal Chemistry, 2022).

Molecular target: P. falciparum apicoplast DNA polymerase (Pf-apPOL) (Plasmodium falciparum, UniProt Q8ILY1)
Test: Fluorescence-based high-throughput DNA polymerase assay (molecular beacon), primary screen and dose-response
Type: biochemical
Procedure: The HT assay employs a molecular beacon, a stem-loop DNA template with a Cy3 dye and the Black Hole Quencher on the 3′ and 5′ ends of the DNA, respectively. Pf-apPOL concentration is based on a calculated absorptivity of ε280 = 56750 M^−1 cm^−1. Reactions were carried out at 25 °C, using Corning 3575 […] (well-volume, 20 µL). Assays testing for compound inhibition composed of reaction buffer (pH 7.9 in 50 mM potassium acetate, 20 mM Tris-acetate and 10 mM magnesium acetate), Pf-apPOL (20 nM), DNA substrate (20 nM), dNTPs (6 µM), and compound (10 µM in DMSO). The DNA and nucleotide substrates (dNTPs) were at concentrations of 20 nM and 6 µM, respectively, in the assay. Pf-apPOL was incubated in the reaction buffer with dNTPs and the compound of interest (10 µM, in the assay) at 25 °C for 10 min. The DNA substrate was then added and the reaction was allowed to proceed for 90 min at 25 °C.
Each assay plate contained 16 negative controls (no Pf-apPOL, DMSO present) and 16 positive controls (Pf-apPOL present, no DMSO). The fluorescence of each well was determined using a BioTek Synergy Neo fluorescence plate reader using excitation and emission wavelengths of 555 and 570 nm, respectively.
In the above, Min is the average of fluorescence emission of the negative controls (substrate only), Max the average fluorescence emission from the positive controls (enzyme + substrate), and Test the emission from the assays in the presence of compounds (enzyme + compound + substrates). […] […] The IC50 of each compound was determined using Equation (2): (2) IC50= Vmax/(1+ (I/IC50)^n)
In the above, n measures cooperativity, with n > 1 indicating synergistic binding of more than a single molecule of the compound.
To identify apPOL inhibitors we utilised our previously developed high-throughput DNA polymerase assay. The HT assay is based on a molecular beacon DNA template that forms a stem-loop with a Cy3 dye and the Black Hole Quencher on the 3′ and 5′ ends of the DNA, respectively. DNA polymerase activity extends an annealed primer through the stem region, displacing the fluorophore from the quencher, thereby increasing its fluorescence (Figure 1(A)). The assay accurately recapitulates the kinetic behaviour of apPOL, as measured through more conventional low-throughput gel-based assays. The Z′ factor for the assay described here was 0.9 across all plates (data not shown).
Figure 1. High-throughput screening. (A) The fluorescent-based DNA polymerase assay used to screen the compound libraries. The DNA template strand is a hairpin loop with a primer annealed to the loop. The 3’ end of the primer is 11 bases away from the 6 bp duplex. Strand displacement activity of the DNA polymerase separates the Cy3 dye from the Black hole quencher leading to an increase in fluorescent signal. (B) The high-throughput assay workflow. The DNA polymerase is incubated with […] compound for 10 min prior to addition of the hairpin substrate. The reaction is quenched at 3 different time points and the fluorescent signal is measured and % inhibition is determined using the provided equation.

[1] = supplemental file 2, sheet IC50 nontoxic compounds; Pf-apPOL

P. falciparum apicoplast DNA polymerase (Pf-apPOL), sequence (Q8ILY1 entry or part of it): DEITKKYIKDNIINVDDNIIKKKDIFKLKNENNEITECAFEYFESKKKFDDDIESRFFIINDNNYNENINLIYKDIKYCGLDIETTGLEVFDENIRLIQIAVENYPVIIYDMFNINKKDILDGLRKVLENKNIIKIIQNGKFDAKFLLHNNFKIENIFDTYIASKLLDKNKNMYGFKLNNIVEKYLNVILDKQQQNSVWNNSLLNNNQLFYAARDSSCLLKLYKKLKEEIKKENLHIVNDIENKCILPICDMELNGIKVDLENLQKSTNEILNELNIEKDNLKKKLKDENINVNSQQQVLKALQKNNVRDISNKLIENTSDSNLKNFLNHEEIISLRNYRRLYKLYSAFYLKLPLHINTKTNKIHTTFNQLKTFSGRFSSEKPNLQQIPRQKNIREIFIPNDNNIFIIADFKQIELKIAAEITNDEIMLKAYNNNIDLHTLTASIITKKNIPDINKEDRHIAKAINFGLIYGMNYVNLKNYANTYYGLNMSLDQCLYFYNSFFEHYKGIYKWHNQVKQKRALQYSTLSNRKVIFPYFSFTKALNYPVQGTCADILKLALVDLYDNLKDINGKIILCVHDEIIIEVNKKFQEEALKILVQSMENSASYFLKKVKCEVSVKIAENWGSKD

## CCCN1COc2ccc3c(=O)c(-c4ccccc4)coc3c2C1 [KU0199556]
DRC-1; concentration 2.5; 10'
  % inhibition Apo pol 10': 3.335%
DRC-1; concentration 2.5; 90'
  % inhibition Apol 90': 6.953%
DRC-1; concentration 2.5; 180'
  % inhibition apPOL 180': 12.8227%
DRC-1; concentration 5; 10'
  % inhibition Apo pol 10': 0.6816%
DRC-1; concentration 5; 90'
  % inhibition Apol 90': 8.234%
DRC-1; concentration 5; 180'
  % inhibition apPOL 180': 17.5775%
DRC-1; concentration 10; 10'
  % inhibition Apo pol 10': 12.2491%
DRC-1; concentration 10; 90'
  % inhibition Apol 90': 22.7546%
DRC-1; concentration 10; 180'
  % inhibition apPOL 180': 37.4083%
DRC-1; concentration 20; 10'
  % inhibition Apo pol 10': 29.2216%
DRC-1; concentration 20; 90'
  % inhibition Apol 90': 42.6091%
DRC-1; concentration 20; 180'
  % inhibition apPOL 180': 58.6511%
DRC-1; concentration 40; 10'
  % inhibition Apo pol 10': 57.482%
DRC-1; concentration 40; 90'
  % inhibition Apol 90': 69.5557%
DRC-1; concentration 40; 180'
  % inhibition apPOL 180': 84.4582%
DRC-1; concentration 80 (unit not given); 10'
  % inhibition Apo pol 10': 71.548%
DRC-1; concentration 80; 90'
  % inhibition Apol 90': 77.7995%
DRC-1; concentration 80; 180'
  % inhibition apPOL 180': 92.1066%
DRC-2; 5'; concentration 80
  % inhibition Apo pol 5': 51%
DRC-2; 40'; concentration 80
  % inhibition Apol 40': 51%
DRC-2; 90'; concentration 20
  % inhibition ApPOL 90': 39%
DRC-2; 90'; concentration 40
  % inhibition ApPOL 90': 51%
DRC-2; 180'; concentration 80
  % inhibition apPOL 180': 39%
DRC-2; concentration 2.5; 5'
  % inhibition Apo pol 5': 7.48%
DRC-2; concentration 2.5; 40'
  % inhibition Apol 40': 5%
DRC-2; concentration 2.5; 90'
  % inhibition ApPOL 90': 3.57%
DRC-2; concentration 2.5; 180'
  % inhibition apPOL 180': -2.43%
DRC-2; concentration 5; 5'
  % inhibition Apo pol 5': 10%
DRC-2; concentration 5; 40'
  % inhibition Apol 40': 0.118%
DRC-2; concentration 5; 90'
  % inhibition ApPOL 90': -8%
DRC-2; concentration 5; 180'
  % inhibition apPOL 180': -84%
DRC-2; concentration 10; 5'
  % inhibition Apo pol 5': 25%
DRC-2; concentration 10; 40'
  % inhibition Apol 40': 23%
DRC-2; concentration 10; 90'
  % inhibition ApPOL 90': 20%
DRC-2; concentration 10; 180'
  % inhibition apPOL 180': 6.45%
DRC-2; concentration 20; 5'
  % inhibition Apo pol 5': 41%
DRC-2; concentration 20; 40'
  % inhibition Apol 40': 42%
DRC-2; concentration 20; 90'
  % inhibition ApPOL 90': 39%
DRC-2; concentration 20; 180'
  % inhibition apPOL 180': 22%
DRC-2; concentration 40; 5'
  % inhibition Apo pol 5': 52%
DRC-2; concentration 40; 40'
  % inhibition Apol 40': 55%
DRC-2; concentration 40; 90'
  % inhibition ApPOL 90': 51%
DRC-2; concentration 40; 180'
  % inhibition apPOL 180': 38%
DRC-2; concentration 80; 5'
  % inhibition Apo pol 5': 51%
DRC-2; concentration 80; 40'
  % inhibition Apol 40': 51%
DRC-2; concentration 80; 90'
  % inhibition ApPOL 90': 48%
DRC-2; concentration 80; 180'
  % inhibition apPOL 180': 39%
Primary screen value of the 186 hits; unit not given; 90 min, 10 µM
  DNA Pol: 28
Primary screen value; head prints only 'DNA Pol'; 90 min, 10 µM
  DNA Pol: 28

## Cc1cccc(CC(=O)N2CCc3c(nc4cc(-c5ccccc5)[nH]n4c3=O)C2)c1 [Molecule 12]
[1]
  IC50: 5.56 µM

## C=CC1=C(C)c2cc3[nH]c(cc4nc(cc5[nH]c(cc1n2)c(C)c5CCC(=O)O)C(CCC(=O)O)=C4C)c(C)c3C=C [Molecule 91, C=CC1=C(C)/C/2=C/c3[nH]c(c(c3C=C)C)/C=C/3\N=C(/C=c/4\[nH]/c(=C\C1=N2)/c(C)c4CCC(=O)O)C(=C3C)CCC(=O)O]
'DNA Pol' of the 186 hits list (screen value); 90 min, 10 µM
  DNA Pol: 102
DRC-1; 10'; conc 2.5
  % inhibition Apo pol 10': 61.8295%
DRC-1; 10'; conc 5
  % inhibition Apo pol 10': 90.2247%
DRC-1; 10'; conc 10
  % inhibition Apo pol 10': 94.5739%
DRC-1; 10'; conc 20
  % inhibition Apo pol 10': 93.6963%
DRC-1; 10'; conc 40
  % inhibition Apo pol 10': 92.3128%
DRC-1; 10'; conc 80
  % inhibition Apo pol 10': 90.9627%
DRC-1; 90'; conc 2.5
  % inhibition Apol 90': 48.9007%
DRC-1; 90'; conc 5
  % inhibition Apol 90': 79.3077%
DRC-1; 90'; conc 10
  % inhibition Apol 90': 94.695%
DRC-1; 90'; conc 20
  % inhibition Apol 90': 95.5429%
DRC-1; 90'; conc 40
  % inhibition Apol 90': 94.7622%
DRC-1; 90'; conc 80
  % inhibition Apol 90': 94.048%
DRC-1; 180'; conc 2.5
  % inhibition apPOL 180': 35.65%
DRC-1; 180'; conc 5
  % inhibition apPOL 180': 71.3476%
DRC-1; 180'; conc 10
  % inhibition apPOL 180': 94.4178%
DRC-1; 180'; conc 20
  % inhibition apPOL 180': 96.2534%
DRC-1; 180'; conc 40
  % inhibition apPOL 180': 95.7686%
DRC-1; 180'; conc 80
  % inhibition apPOL 180': 95.2166%
DRC-2; 5'; conc 2.5
  % inhibition Apo pol 5': 48%
DRC-2; 5'; conc 5
  % inhibition Apo pol 5': 50%
DRC-2; 5'; conc 10
  % inhibition Apo pol 5': 53%
DRC-2; 5'; conc 20
  % inhibition Apo pol 5': 49%
DRC-2; 5'; conc 40
  % inhibition Apo pol 5': 49%
DRC-2; 5'; conc 80
  % inhibition Apo pol 5': 48%
DRC-2; 5'; concentration 2.5
  % inhibition Apo pol 5': 48%
DRC-2; 5'; concentration 20
  % inhibition Apo pol 5': 49%
DRC-2; 5'; concentration 40
  % inhibition Apo pol 5': 49%
DRC-2; 5'; concentration 80
  % inhibition Apo pol 5': 48%
DRC-2; 40'; conc 2.5
  % inhibition Apol 40': 44%
DRC-2; 40'; conc 5
  % inhibition Apol 40': 57%
DRC-2; 40'; conc 10
  % inhibition Apol 40': 70%
DRC-2; 40'; conc 20
  % inhibition Apol 40': 70%
DRC-2; 40'; conc 40
  % inhibition Apol 40': 69%
DRC-2; 40'; conc 80
  % inhibition Apol 40': 69%
DRC-2; 40'; concentration 10
  % inhibition Apol 40': 70%
DRC-2; 40'; concentration 20
  % inhibition Apol 40': 70%
DRC-2; 40'; concentration 40
  % inhibition Apol 40': 69%
DRC-2; 40'; concentration 80
  % inhibition Apol 40': 69%
DRC-2; 90'; conc 2.5
  % inhibition ApPOL 90': 40%
DRC-2; 90'; conc 5
  % inhibition ApPOL 90': 56%
DRC-2; 90'; conc 10
  % inhibition ApPOL 90': 74%
DRC-2; 90'; conc 20
  % inhibition ApPOL 90': 76%
DRC-2; 90'; conc 40
  % inhibition ApPOL 90': 75%
DRC-2; 90'; conc 80
  % inhibition ApPOL 90': 75%
DRC-2; 90'; concentration 20
  % inhibition ApPOL 90': 76%
DRC-2; 90'; concentration 40
  % inhibition ApPOL 90': 75%
DRC-2; 90'; concentration 80
  % inhibition ApPOL 90': 75%
DRC-2; 180'; conc 2.5
  % inhibition apPOL 180': 25%
DRC-2; 180'; conc 5
  % inhibition apPOL 180': 49%
DRC-2; 180'; conc 10
  % inhibition apPOL 180': 76%
DRC-2; 180'; conc 20
  % inhibition apPOL 180': 80%
DRC-2; 180'; conc 40
  % inhibition apPOL 180': 80%
DRC-2; 180'; conc 80
  % inhibition apPOL 180': 79%
DRC-2; 180'; concentration 5
  % inhibition apPOL 180': 49%
DRC-2; 180'; concentration 10
  % inhibition apPOL 180': 76%
DRC-2; 180'; concentration 20
  % inhibition apPOL 180': 80%
DRC-2; 180'; concentration 40
  % inhibition apPOL 180': 80%
Primary screen value, "DNA Pol"; 90 min, 10 µM
  DNA Pol: 102

## Cc1ccc(N2CCC(NC(=O)Cc3cccs3)C2=O)cc1C (centres unmarked) [Molecule 57]
[1]
  IC50: 29 µM
